From ChEMBL document CHEMBL1122678, “Structural correlations of choline acetyltransferase inhibitors: trans-N-(carboxymethyl)-4-(beta-1-naphthylvinyl)pyridinium bromide and cis-N-(2-aminoethyl)-4-(beta-1-naphthylvinyl)-3-methylpyridinium bromide hydrobromide” (J Med Chem, 1984) come the findings set out here.

Assay [1] can be described thus: (§1) Inhibitory activity was determined. The note with it: read-out: I50.
A short description of assay [2]: as §1.

On to `C(=C\c1cccc2ccccc12)/c1ccncc1`, for which the IC50 in assay [1] was found to be 25 µM.
As for `C(=C\c1cccc2ccccc12)/c1ccncc1` (stereo in doubt; cis) [listing 1 of 2 here], the IC50 in assay [1] turned out to be 50 µM.
Compound `C(=C\c1cccc2ccccc12)/c1ccncc1` (stereo in doubt; cis) [listing 2 of 2 here] yielded an I23 in assay [2] of 400 µM.
Regarding `C(=C\c1cccc2ccccc12)/c1ccncc1` (stereo in doubt; trans), the IC50 in assay [1] came out at 5 µM.
